The text below walks through data of patent US8614230B2, “Derivatives of the aminated hydroxyquinoline class for treating cancers” (Biopharmed, priority 2007, dated 2013).

Read-outs that look alike come from different tables or passages of the source.

The test system of data set [1] is KB cells. Kind of data set: Cytotoxicity / cell viability on KB cells (colony-forming assay). Type of data set: cell-based, human. As to conditions: for Cytotoxicity on KB cells (percentage inhibition of cell viability): relative to reference without compound. The method, then: Cancerous KB cells are also considered, to determine the cell viability (or survival rate). This cell viability is determined according to the teaching of Nicholson K. M. et al., British Journal of Cancer, 1999, 81, 423-430.
KB cells are human carcinoma cell lines, KB-3-1. These cells are maintained in a culture medium, “Dulbecco's modified Eagle's medium” (DMEM—Sigma), which contains 0.11 g/l of sodium pyruvate and 4.5 g/l of glucose, supplemented with 10% (v/v) fetal calf serum, penicillin (32 μg/ml) and streptomycin (50 μg/ml). The cells are cultured as monolayers and are incubated at 37° C. in a humid atmosphere (95% air/5% CO2).
The preceding KB cells are then incubated in 6- or 96-well plates in the presence of the test compounds of the invention, dissolved in dimethyl sulfoxide (DMSO). The content of surviving cells is measured by the “colony-forming assay” test, in which the cells are redistributed at a density of 100 to 300 cells per well in 24-well plates, for a period of 8 days, and are then stained with Leishman's reagent (0.2% in methanol). The colonies of more than 50 cells are counted visually under a microscope, the survival rate being expressed on the colonies formed in the presence of the compounds of the invention relative to cell colonies not treated with said compounds. The determination of the IC50 values (concentration of compounds in the reaction medium for which 50% of the tested tumor cells survived the treatment) enables comparison of the efficacy of these compounds.

Data set [2] relates to U87/GFP cells. Kind of data set: Antiproliferative effect on U87/GFP cells (flash cytometry). Format: cell-based, human. As to conditions: for inhibition at 2 µM / inhibition at 10 µM: read-out: Antiproliferative effect on U87/GFP cells: percentage inhibition. The method, then: For the U-87/GFP cells, the control of cell proliferation and migration in the presence of the compounds (I) of the invention is performed via a colorimetric method (MTS) and is performed according to known standard protocols. The methodologies implemented use flash cytometry (Trophos S.A., Marseilles, France). The flash cytometry technique involves fluorescence, which consists of irradiating a compound at a set wavelength and of recording the fluorescence emitted at another wavelength. This technique is performed with a flash cytometer and adapted for 96-well test plates. The excitation and emission wavelengths in the context of use of this fluorescence are located in the 485-495 nm range. The measured fluorescence expresses the amount of cells surviving after treatment with the compounds of the invention. The publications by Luby-Phelps K. et al., J. Histochemistry and Cytometry, 2003, 51, 271-274 and Modarai B. et al., Circulation, 2005, 111, 2645-2653 may be mentioned by way of reference for the above methods.
The cells of the U87/GFP lines are cultured in 96-well plates according to a standard methodology described by Bajetto et al., Neurochemistry International, 2006, 43, 31-38 in the presence of different concentrations of the compounds of the invention.
The cell proliferation is determined and quantified according to standard methods known to those skilled in the art. A 100% proliferation is attributed to the untreated cells and a percentage less than 100% is obtained when the same cells are treated with the compounds of the invention.
(§1) The cell proliferation and migration are determined by imaging using a flash cytometer (Trophos S.A., Marseilles, France), and the calculations are performed using the “Metamorph 4.6” imaging signal processing software (Molecular Devices, USA), the use of which, which is known in the field, makes it possible to determine the above two effects independently of each other.

Data set [3] concerns U87/GFP cells. Kind of data set: Antimigratory effect on U87/GFP cells (scratch technique). Type of data set: cell-based, human. The method, then:
The determination of the antimigratory activity of the compounds (I) of the invention on these same cell lines, cultured in MEM medium (Minimum Essential Medium) is performed via the “scratch” technique that consists in scratching a cell lawn using a micropipette cone. By comparison with these same cells not containing the compounds of the invention, the antimigratory effect is determined. A 100% migration is attributed to the untreated cells, whereas, as a function of the concentration of the compounds (I) of the invention, total stoppage of migration is determined by observation of the “scratch” remaining unfilled by the cell migration, by means of computer software.
as §1

Data set [4] deals with mice. Conditions: comparison value for anticancer drugs; cited from earlier work.
[5] abbreviates: first value of two experiments performed in parallel, read-out: Cytotoxicity on KB cells (IC50).
Setting [6] is: second value of two experiments performed in parallel, read-out: Cytotoxicity on KB cells (IC50).
Setting [7] is: concentration giving 50% inhibition of proliferation.
Setting [8] is: Homo sapiens, KB, approximate value given in the description, read-out: cytotoxic activity IC50 on KB cells.
Where [9] appears, read: Homo sapiens, KB, first value of two experiments performed in parallel, read-out: Cytotoxicity on KB cells (IC50).
Setting [10] is: Homo sapiens, KB, second value of two experiments performed in parallel, read-out: Cytotoxicity on KB cells (IC50).
Setting [11] is: Homo sapiens, concentration giving 50% inhibition of proliferation.
The mark [12] stands for this setting: concentration giving 80% inhibition of migration.

`Oc1ccc(CNCc2cccc(C(F)(F)F)c2)c2cccnc12` [I35]: the IC50 is 0.2 µM in data set [1] (setting [5]) and 0.22 µM in data set [1] (setting [6]).

As for `CC(C)(C)OC(=O)N(Cc1ccc(C(F)(F)F)cc1)Cc1ccc(O)c2ncccc12` [I37], the values for the 50% inhibitory concentration (IC50) in data set [1] (setting [5]), in data set [1] (setting [6]) and in data set [2] (setting [7]) were 8 µM, 9 µM and 5 to 10 µM, respectively. Also, the “Antiproliferative effect on U87/GFP cells: percentage inhibition” value in data set [2] (at 5-10 μM) is 50%.

As to `Oc1ccc(CNCc2ccc(C(F)(F)F)cc2)c2cccnc12` [I34], the IC50 is 10 µM in data set [1] (setting [5]), 9 µM in data set [1] (setting [6]) and 5 to 10 µM in data set [2] (setting [7]). In data set [2] (at 5-10 μM), the “Antiproliferative effect on U87/GFP cells: percentage inhibition” value amounted to 50%.

As to `CC(C)(C)OC(=O)N1CCCN(C(=O)OC(C)(C)C)CCN(Cc2ccc(O)c3ncccc23)CCCN(Cc2ccc(O)c3ncccc23)CC1` [I9, di-tert-butyl 4,8-bis((8-hydroxyquinolin-5-yl)methyl)-1,4,8,11-tetraazacyclotetradecane-1,11-dicarboxylate], the IC50 in data set [1] (setting [8]) is about 0.4 µM; in data set [1] (setting [9]), 0.398 µM; in data set [1] (setting [10]) it was 0.639 µM. For the same compound, the “Cytotoxicity on KB cells (percentage inhibition of cell viability)” value in data set [1] (at 1 μM) is 77% at 1 μM.

Turning to `CC(C)(C)OC(=O)N(Cc1ccccc1)Cc1ccc(O)c2ncccc12` [I38], the half-inhibitory concentration (IC50) in data set [1] (setting [5]) is 0.9 µM; in data set [1] (setting [6]), 1.1 µM; in data set [2] (setting [7]), 5 to 10 µM. Besides, in data set [2] (at 5-10 μM), the “Antiproliferative effect on U87/GFP cells: percentage inhibition” value is 50%.

For the compound `CC(C)(C)OC(=O)N(Cc1cccc(C(F)(F)F)c1)Cc1ccc(O)c2ncccc12` [I36], the IC50 in data set [1] (setting [5]) is 1 µM; in data set [1] (setting [6]) it was 1.1 µM; in data set [2] (setting [7]), 5 to 10 µM. In addition, the “Antiproliferative effect on U87/GFP cells: percentage inhibition” value in data set [2] (at 5-10 μM) amounted to 50%.

Regarding `Oc1ccc(CN2CCCNCCN(Cc3ccc(CN4CCCNCCNCCCNCC4)cc3)CCCNCC2)c2cccnc12` [I7, 5-((8-(4-((1,4,8,11-tetraazacyclotetradecane-1-yl)methyl)benzyl)-1,4,8,11-tetraazacyclotetradecan-1-yl)methyl)quinolin-8-ol], the values for the IC50 in data set [1] (setting [8]), in data set [1] (setting [9]) and in data set [1] (setting [10]) were about 0.1 µM, 0.122 µM and 0.303 µM, respectively. In addition, in data set [1] (at 1 μM), the “Cytotoxicity on KB cells (percentage inhibition of cell viability)” value came to 93% at 1 μM. Besides, the “Antiproliferative effect on U87/GFP cells: concentration at which activity is observed” value in data set [2] (percentage not given) was 2 µM.

For the compound `Oc1ccc(CN2CCCNCCNCCCNCC2)c2cccnc12` [I4, 5-((1,4,8,11-tetraazacyclotetradecane-1-yl)methyl)quinolin-8-ol], the “Cytotoxicity on KB cells (percentage inhibition of cell viability)” value in data set [1] (at 1 μM) is recorded as 27% at 1 μM.

Turning to `Oc1ccc(N(Cc2cccc3ccccc23)c2ccc(O)c3ncccc23)c2cccnc12` [I18, 5,5′-(naphthalen-1-ylmethylazanediyl)diquinolin-8-ol], the results for the IC50 in data set [1] (setting [9]), in data set [1] (setting [10]) and in data set [2] (setting [11]) were 0.005 µM, 0.0045 µM and 2 µM, respectively. Further, in data set [2] (Homo sapiens), the inhibition at 2 µM worked out at 50%.

With `Oc1ccc(CN(Cc2ccccc2)Cc2ccc(O)c3ncccc23)c2cccnc12` [I12], the “Cytotoxicity on KB cells (percentage inhibition of cell viability)” value in data set [1] (at 1 μM) worked out at 93% at 1 μM. Besides, the half-inhibitory concentration (IC50) is 0.0015 µM in data set [1] (setting [5]), 0.005 µM in data set [1] (setting [6]), 0.5 µM in data set [2] (concentration giving 30% inhibition of proliferation) and 2 µM in data set [3] (setting [12]). Besides, in data set [2] (at 0.5 μM), the “Antiproliferative effect on U87/GFP cells: percentage inhibition” value was determined as 30%. In addition, the “Antimigratory effect on U87/GFP cells: percentage inhibition” value in data set [3] (at 2 μM) was 80%.

On to `Oc1ccc(CN2CCN(Cc3ccc(O)c4ncccc34)CC2)c2cccnc12` [I8, 5,5′-(piperazine-1,4-diylbis (methylene))diquinolin-8-ol], for which the 50% inhibitory concentration (IC50) in data set [1] (setting [9]) came out at 0.043 µM; in data set [1] (setting [10]), 0.032 µM. Besides, the “Cytotoxicity on KB cells (percentage inhibition of cell viability)” value in data set [1] (at 1 μM) was determined as 94% at 1 μM.

For the compound `CC(C)(C)OC(=O)N1CCCN(Cc2ccc(O)c3ncccc23)CCCN(C(=O)OC(C)(C)C)CCN(C(=O)OC(C)(C)C)CCC1` [I2, tri-tert-butyl 12-((8-hydroxyquinolin-5-yl)methyl)-1,4,8,12-tetraazacyclopentadecane-1,4,8-tricarboxylate], the “Cytotoxicity on KB cells (percentage inhibition of cell viability)” value in data set [1] (at 1 μM) amounted to 28% at 1 μM.

For `Cn1nnc2c(C(N)=O)ncn2c1=O` [Temodal ®, reference compound], the inhibition at 10 µM worked out at 50% in data set [2] (Homo sapiens) and 50% in data set [3] (Homo sapiens, at 10 μM, read-out: Antimigratory effect on U87/GFP cells: percentage inhibition). The IC50 was 10 µM in data set [2] (setting [11]) and 10 µM in data set [3] (Homo sapiens, concentration giving 50% inhibition of migration).

For the compound `Oc1ccc(NCc2cccc3ccccc23)c2cccnc12` [I17, 5-(naphthalen-1-ylmethylamino)quinolin-8-ol], the IC50 in data set [1] (setting [9]) amounted to 1 µM; in data set [1] (setting [10]), 0.95 µM.

As to `Cc1ccc(CNCc2ccc(O)c3ncccc23)cc1` [I16, 5-((4-methylbenzylamino)methyl)quinolin-8-ol], the IC50 came to 11 µM in data set [1] (setting [9]), 10 µM in data set [1] (setting [10]), 2 µM in data set [2] (concentration giving 80% inhibition of proliferation) and 2 µM in data set [3] (setting [12]). Also, the “Cytotoxicity on KB cells (percentage inhibition of cell viability)” value in data set [1] (at 2 μM) was 50% at 2 μM. Moreover, the inhibition at 2 µM in data set [2] (Homo sapiens) came to 80%; in data set [3] (Homo sapiens, at 2 μM, read-out: Antimigratory effect on U87/GFP cells: percentage inhibition), 80%.

Regarding `CC(C)(C)OC(=O)N1CCCN(C(=O)OC(C)(C)C)CCN(C(=O)OC(C)(C)C)CCCNC(Cc2ccc(O)c3ncccc23)CC1` (stereo not shown) [I3, tri-tert-butyl 11-((8-hydroxyquinolin-5-yl)methyl)-1,4,8,12-tetraazacyclopentadecane-1,4,8-tricarboxylate], in data set [1] (at 1 μM), the “Cytotoxicity on KB cells (percentage inhibition of cell viability)” value is 15% at 1 μM.

For `Oc1ccc(CNCc2ccccc2)c2cccnc12` [I13, 5-((benzylamino)methyl)quinolin-8-ol], the concentration for half-maximal inhibition (IC50) is over 1 µM in data set [1] (setting [9]), 1.3 µM in data set [1] (setting [10]) and 10 µM in data set [2] (setting [11]). In addition, in data set [1] (at 1 μM), the “Cytotoxicity on KB cells (percentage inhibition of cell viability)” value was 90% at 1 μM. Further, the inhibition at 10 µM in data set [2] (Homo sapiens) turned out to be 50%.

For the compound `CC(NCc1ccc(O)c2ncccc12)c1ccccc1` (stereo not shown) [I33], the IC50 in data set [1] (setting [5]) came out at 1 µM; in data set [1] (setting [6]), 1.1 µM; in data set [2] (setting [7]), 0.5 µM. In addition, in data set [2] (at 0.5 μM), the “Antiproliferative effect on U87/GFP cells: percentage inhibition” value is recorded as 50%.

Consider `CC(=O)O[C@H]1C(=O)[C@@]2(C)[C@H]([C@H](OC(=O)c3ccccc3)[C@]3(O)C[C@H](OC(=O)[C@H](O)[C@@H](NC(=O)c4ccccc4)c4ccccc4)C(C)=C1C3(C)C)[C@]1(OC(C)=O)CO[C@@H]1C[C@@H]2O` [Taxol], for which, in data set [4], the LD50 entry was “about 10 mg/kg”.
